Source: BindingDB's records for doi:10.1016/j.bmcl.2006.02.063 (The University of Kansas, 2006)

assay: Inhibition of Her2 in SKBr3 cells by ELISA

| IC50 [µM] | SMILES |
| --- | --- |
| 31 | O=S(=O)(Nc1ccc(Cl)cc1O)c1ccccc1 |
| 61 | CC1(C)CC(=O)C2C(=Nc3ccccc3NC2c2cccc(O)c2O)C1 (stereo not drawn) [3-(1-hydroxy-3,3-dimethyl-3,4,10,11-tetrahydro-2H-dibenzo[b,e][1,4]diazepin-11-yl)-benzene-1,2-diol] |
| 18 | COc1cc(C2CC(c3ccccc3O)N=N2)ccc1O (stereo not drawn) [6-[5-(4-hydroxy-3-methoxyphenyl)-3-pyrazolidinylidene]-1-cyclohexa-2,4-dienone] |
